# ChEMBL document CHEMBL4414618, “Structure-Activity Relationships of Fish Oil Derivatives with Antiallergic Activity in Vitro and in Vivo” (J Med Chem, 2019)
# What was measured:
# RBL-2H3 [1] = assay: (§1) Antiallergic activity in rat RBL2H3 cells assessed as inhibition of DNP-HSA-mediated degranulation by measuring decrease in beta-hexosaminidase activity preincubated for 30 mins followed by DNP-HSA stimulation and measured after 30 mins by 4-nitrophenyl 2-acetamido-2-deoxy-beta-D-glucopyranoside substrate based assay; type: functional, cell-based
# [2] = molecular target: T1, Fatty-acid amide hydrolase 1 (Homo sapiens, UniProt O00519); assay: Inhibition of human FAAH expressed in baculovirus infected Sf9 cells using N-(6-methoxypyridin-3-yl)octanamide as substrate measured for 15 mins by fluorescence based assay
# T1 sequence (O00519 whole entry): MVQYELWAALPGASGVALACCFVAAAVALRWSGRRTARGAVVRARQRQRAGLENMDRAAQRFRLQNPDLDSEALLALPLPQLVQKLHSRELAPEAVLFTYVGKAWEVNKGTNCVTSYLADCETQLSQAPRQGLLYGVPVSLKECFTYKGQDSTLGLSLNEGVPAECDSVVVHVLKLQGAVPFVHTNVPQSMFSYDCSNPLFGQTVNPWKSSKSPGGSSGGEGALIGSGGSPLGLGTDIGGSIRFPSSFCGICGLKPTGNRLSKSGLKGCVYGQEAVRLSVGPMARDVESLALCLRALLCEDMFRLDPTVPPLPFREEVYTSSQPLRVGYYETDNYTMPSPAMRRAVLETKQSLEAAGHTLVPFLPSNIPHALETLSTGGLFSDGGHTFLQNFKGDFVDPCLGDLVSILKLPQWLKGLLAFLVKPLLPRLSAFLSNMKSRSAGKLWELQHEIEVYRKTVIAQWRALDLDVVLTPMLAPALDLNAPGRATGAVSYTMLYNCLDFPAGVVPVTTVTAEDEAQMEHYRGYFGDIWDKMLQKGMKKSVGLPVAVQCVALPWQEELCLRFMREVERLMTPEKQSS
# [3] = molecular target: T1, Fatty-acid amide hydrolase 1; assay: Substrate activity at human FAAH expressed in baculovirus infected Sf9 cells assessed as docosahexaenoic acid formation incubated for 60 mins by HPLC analysis; type: ADME; conditions: sf9, 1 h
# Mus musculus [4] = assay: (§2) Antiallergic activity in BALB/c mouse assessed as reduction in anti-DNP-IgE-mediated passive cutaneous anaphylaxis at 1000 mg/kg, po administered once daily for 5 days followed by anti-DNP-IgE stimulation on day 4 and subsequent DNP-HSA challenge on day 5 post 1 hr compound dose and measured after 30 mins by Evans blue dye-based spectrophotometric method relative to control; type: functional; design: scale not given: the % may be the effect or the level left
# RBL-2H3 [5] = assay: as §1, with “incubated for 30 mins prior to FAAH inhibitor URB597 addition further incubated” for “preincubated”; type: functional, cell-based
# RBL-2H3 [6] = assay: Ratio of IC50 for antiallergic activity in rat RBL2H3 cells assessed as inhibition of DNP-HSA-mediated degranulation by measuring decrease in beta-hexosaminidase activity to IC50 for antiallergic activity in rat RBL2H3 cells assessed as inhibition of DNP-HSA-mediated degranulation by measuring decrease in beta-hexosaminidase activity in presence of FAAH inhibitor URB597; type: functional
# RBL-2H3 [7] = assay: as §1, with “incubated for 30 mins prior to CB2 antagonist AM630 addition further incubated” for “preincubated”; type: functional, cell-based
# Mus musculus [8] = assay: as §2, with “50” for “1000”; type: functional; design: scale not given: the % may be the effect or the level left
IC50 (RBL-2H3 [1]) [µM],Compound,further results
24,CC/C=C\C/C=C\C/C=C\C/C=C\C/C=C\C/C=C\CCC(=O)NCC(=O)O,IC50 [2]: 8.6 µM; Drug metabolism [3]: Metabolite_Detected; Activity (Mus musculus [4]): 0%
25,CC/C=C\C/C=C\C/C=C\C/C=C\C/C=C\C/C=C\CCC(=O)NCCO,IC50 [2]: > 50 µM; Drug metabolism [3]: Metabolite_Detected; IC50 (RBL-2H3 [5]): 7.6 µM; Activity (Mus musculus [4]): 31%; Ratio IC50 (RBL-2H3 [6]): 3; IC50 (RBL-2H3 [7]): 25 µM
> 50,CCCCCCCC/C=C\CCCCCCCCCCCC(=O)NCCO,–
16,CC/C=C\C/C=C\C/C=C\C/C=C\C/C=C\C/C=C\CCC(=O)NC(CO)CO,IC50 [2]: > 50 µM; Drug metabolism [3]: Metabolite_Notdetected; Activity (Mus musculus [4]): 17%
> 50,CC/C=C\C/C=C\C/C=C\C/C=C\C/C=C\C/C=C\CCC(=O)NCCc1ccc(O)c(O)c1,–
> 50,CCCCC/C=C\C/C=C\CCCCCCCCCCCC(=O)O,–
> 50,CC/C=C\C/C=C\C/C=C\C/C=C\C/C=C\C/C=C\CCC(=O)OCCO,–
15,CC/C=C\C/C=C\C/C=C\C/C=C\C/C=C\C/C=C\CCC(=O)NS(=O)(=O)c1ccc([N+](=O)[O-])cc1,Activity (Mus musculus [4]): 49%
> 50,CC/C=C\C/C=C\C/C=C\C/C=C\C/C=C\C/C=C\CCC(=O)N1CCN(C)CC1,–
18,CC/C=C\C/C=C\C/C=C\C/C=C\C/C=C\C/C=C\CCC(=O)NCCCO,IC50 [2]: > 50 µM; Drug metabolism [3]: Metabolite_Detected; Activity (Mus musculus [4]): 0%
> 50,CC/C=C\C/C=C\C/C=C\C/C=C\C/C=C\C/C=C\CCC(=O)Nc1cccc(O)c1,–
27,CC/C=C\C/C=C\C/C=C\C/C=C\C/C=C\C/C=C\CCC(=O)NCC(C)O (configuration not stated),–
> 50,CCCCC/C=C\C/C=C\CCCCCCCCCCCC(=O)NCCO,–
15,CC/C=C\C/C=C\C/C=C\C/C=C\C/C=C\C/C=C\CCC(=O)NS(=O)(=O)c1ccc(C(F)(F)F)cc1,Activity (Mus musculus [4]): 19%
> 50,CC/C=C\C/C=C\C/C=C\C/C=C\C/C=C\C/C=C\CCC(=O)NC(C)(C)C,–
> 50,CC/C=C\C/C=C\C/C=C\C/C=C\C/C=C\C/C=C\CCC(=O)NS(=O)(=O)c1ccc(O)cc1,–
24,CC/C=C\C/C=C\C/C=C\C/C=C\C/C=C\C/C=C\CCC(=O)NC(C)CO (configuration not stated),IC50 [2]: > 50 µM; Drug metabolism [3]: Metabolite_Notdetected; Activity (Mus musculus [4]): 7%
> 50,CC/C=C\C/C=C\C/C=C\C/C=C\C/C=C\C/C=C\CCC(=O)N(C)CCO,–
> 50,CC/C=C\C/C=C\C/C=C\C/C=C\C/C=C\C/C=C\CCC(=O)NCCN,–

IC50 (RBL-2H3 [1]) [µM],Compound,further results
27,CC/C=C\C/C=C\C/C=C\C/C=C\C/C=C\C/C=C\CCC(=O)NS(=O)(=O)c1ccc(C)cc1,–
> 50,CC/C=C\C/C=C\C/C=C\C/C=C\C/C=C\C/C=C\CCC(=O)N1CCN(S(C)(=O)=O)CC1,–
> 50,CC/C=C\C/C=C\C/C=C\C/C=C\C/C=C\C/C=C\CCC(=O)NS(C)(=O)=O,–
18,CC/C=C\C/C=C\C/C=C\C/C=C\C/C=C\C/C=C\CCC(=O)NCCOCCO,IC50 [2]: > 50 µM; Drug metabolism [3]: Metabolite_Detected; Activity (Mus musculus [4]): 11%
> 50,CC/C=C\C/C=C\C/C=C\C/C=C\C/C=C\C/C=C\CCC(=O)OCCOCCO,–
> 50,CC/C=C\C/C=C\C/C=C\C/C=C\C/C=C\C/C=C\CCC(=O)NS(=O)(=O)C1CC1,–
> 50,CC/C=C\C/C=C\C/C=C\C/C=C\C/C=C\C/C=C\CCC(=O)NS(=O)(=O)c1cccs1,–
> 50,CC/C=C\C/C=C\C/C=C\C/C=C\C/C=C\C/C=C\CCC(=O)N(C)CCOC,–
17,CC/C=C\C/C=C\C/C=C\C/C=C\C/C=C\C/C=C\CCC(=O)NS(=O)(=O)C(C)(C)C,IC50 [2]: > 50 µM; Drug metabolism [3]: Metabolite_Notdetected; Activity (Mus musculus [4]): 0%
24,CC/C=C\C/C=C\C/C=C\C/C=C\C/C=C\C/C=C\CCC(=O)NS(=O)(=O)c1ccc(Cl)cc1,–
> 50,CC/C=C\C/C=C\C/C=C\C/C=C\C/C=C\C/C=C\CCC(=O)NCCC,–
> 50,CC/C=C\C/C=C\C/C=C\C/C=C\C/C=C\C/C=C\CCC(=O)NC(C)C,–
21,CC/C=C\C/C=C\C/C=C\C/C=C\C/C=C\C/C=C\CCC(=O)NS(=O)(=O)C(F)(F)C(F)(F)F,–
> 50,CC/C=C\C/C=C\C/C=C\C/C=C\C/C=C\C/C=C\CCC(=O)NS(=O)(=O)c1ccccc1,–
> 50,CC/C=C\C/C=C\C/C=C\C/C=C\C/C=C\C/C=C\CCC(=O)N1CCOCC1,–
> 50,CC/C=C\C/C=C\C/C=C\C/C=C\C/C=C\C/C=C\CCC(=O)NC1CCOCC1,–
22,CC/C=C\C/C=C\C/C=C\C/C=C\C/C=C\C/C=C\CCC(=O)NS(=O)(=O)Cc1ccccc1,Activity (Mus musculus [4]): 2%
19,CC/C=C\C/C=C\C/C=C\C/C=C\C/C=C\C/C=C\CCC(=O)NS(=O)(=O)c1ccc(OC(F)(F)F)cc1,Activity (Mus musculus [4]): 11%
47,CC/C=C\C/C=C\C/C=C\C/C=C\C/C=C\C/C=C\CCC(=O)NS(=O)(=O)C(F)(F)F,–

IC50 (RBL-2H3 [1]) [µM],Compound,further results
> 50,CC/C=C\C/C=C\C/C=C\C/C=C\C/C=C\C/C=C\CCC(=O)NCC1CCOCC1,–
> 50,CC/C=C\C/C=C\C/C=C\C/C=C\C/C=C\C/C=C\CCC(=O)NS(=O)(=O)c1ccc(C(=O)O)cc1,–
29,CC/C=C\C/C=C\C/C=C\CCCCCCCC(=O)NCCO,Activity (Mus musculus [4]): 29%
> 50,CC/C=C\C/C=C\C/C=C\C/C=C\C/C=C\C/C=C\CCC(=O)Nc1ccccc1O,–
> 50,CC/C=C\C/C=C\C/C=C\C/C=C\C/C=C\C/C=C\CCC(=O)NCCOC,–
> 50,CC/C=C\C/C=C\C/C=C\C/C=C\C/C=C\C/C=C\CCC(=O)NCC(=O)OC,–
30,CC/C=C\C/C=C\C/C=C\C/C=C\C/C=C\C/C=C\CCC(=O)NS(=O)(=O)c1ccc(C(=O)OC)cc1,–
> 50,CC/C=C\C/C=C\C/C=C\C/C=C\C/C=C\C/C=C\CCC(=O)N(CCO)CCO,–
> 50,CC/C=C\C/C=C\C/C=C\C/C=C\C/C=C\C/C=C\CCC(=O)OC(CO)CO,–
24,CC/C=C\C/C=C\C/C=C\C/C=C\C/C=C\C/C=C\CCC(=O)NS(=O)(=O)c1ccc(F)cc1,Activity (Mus musculus [4]): 0%
> 50,CCCCC/C=C\C/C=C\C/C=C\CCCCCCC(=O)O [DIHOMO-GAMMA-LINOLENIC ACID],–
> 50,CC/C=C\C/C=C\C/C=C\C/C=C\C/C=C\C/C=C\CCC(=O)O [DOCONEXENT],Activity (Mus musculus [4]): 6%
> 50,CCCCCCCC/C=C\CCCCCCCCCCCC(=O)O [ERUCIC ACID],–
–,CC(C)(C(=O)O)c1ccc(C(O)CCCN2CCC(C(O)(c3ccccc3)c3ccccc3)CC2)cc1 (configuration not stated) [FEXOFENADINE],Activity (Mus musculus [8]): 39%
> 50,CC/C=C\C/C=C\C/C=C\C/C=C\C/C=C\CCCC(=O)O [ICOSAPENT],–
> 50,CCCCC/C=C\C/C=C\CCCCCCCC(=O)O [LINOLEIC ACID],–
> 50,CC/C=C\C/C=C\C/C=C\CCCCCCCC(=O)O [LINOLENIC ACID],–
> 50,CCCCCCCC/C=C\CCCCCCCC(=O)O [OLEIC ACID],–
> 50,CCCCCCCC/C=C\CCCCCCCC(=O)NCCO [OLEOYLETHANOLAMIDE],–

Compound,IC50 (RBL-2H3 [1]) [µM],further results
CCCCC/C=C\C/C=C\C/C=C\CCCCCCC(=O)NCCO,> 50,–
CC/C=C\C/C=C\C/C=C\C/C=C\C/C=C\C/C=C\CCC(=O)NCC(O)CO (configuration not stated),17,IC50 [2]: > 50 µM; Drug metabolism [3]: Metabolite_Detected; Activity (Mus musculus [4]): 23%
CC/C=C\C/C=C\C/C=C\C/C=C\C/C=C\CCCC(=O)NCCO,24,–
CCCCC/C=C\C/C=C\C/C=C\C/C=C\CCCC(=O)NCCO [ANANDAMIDE],> 50,–
CCCCC/C=C\C/C=C\C/C=C\C/C=C\CCCC(=O)O [ARACHIDONIC ACID],> 50,–
CCCCC/C=C\C/C=C\CCCCCCCC(=O)NCCO [LINOLEOYLETHANOLAMIDE],48,–
